{
  "source": "patent US5229123A",
  "about": "“Antifungal agents” (Hoffmann-La Roche Inc., priority 1991, dated 1993)",
  "key": {"Chs 1": {"target": "T1, Chs 1 (Saccharomyces cerevisiae, UniProt P08004)", "T1 sequence (P08004 1-1131)": "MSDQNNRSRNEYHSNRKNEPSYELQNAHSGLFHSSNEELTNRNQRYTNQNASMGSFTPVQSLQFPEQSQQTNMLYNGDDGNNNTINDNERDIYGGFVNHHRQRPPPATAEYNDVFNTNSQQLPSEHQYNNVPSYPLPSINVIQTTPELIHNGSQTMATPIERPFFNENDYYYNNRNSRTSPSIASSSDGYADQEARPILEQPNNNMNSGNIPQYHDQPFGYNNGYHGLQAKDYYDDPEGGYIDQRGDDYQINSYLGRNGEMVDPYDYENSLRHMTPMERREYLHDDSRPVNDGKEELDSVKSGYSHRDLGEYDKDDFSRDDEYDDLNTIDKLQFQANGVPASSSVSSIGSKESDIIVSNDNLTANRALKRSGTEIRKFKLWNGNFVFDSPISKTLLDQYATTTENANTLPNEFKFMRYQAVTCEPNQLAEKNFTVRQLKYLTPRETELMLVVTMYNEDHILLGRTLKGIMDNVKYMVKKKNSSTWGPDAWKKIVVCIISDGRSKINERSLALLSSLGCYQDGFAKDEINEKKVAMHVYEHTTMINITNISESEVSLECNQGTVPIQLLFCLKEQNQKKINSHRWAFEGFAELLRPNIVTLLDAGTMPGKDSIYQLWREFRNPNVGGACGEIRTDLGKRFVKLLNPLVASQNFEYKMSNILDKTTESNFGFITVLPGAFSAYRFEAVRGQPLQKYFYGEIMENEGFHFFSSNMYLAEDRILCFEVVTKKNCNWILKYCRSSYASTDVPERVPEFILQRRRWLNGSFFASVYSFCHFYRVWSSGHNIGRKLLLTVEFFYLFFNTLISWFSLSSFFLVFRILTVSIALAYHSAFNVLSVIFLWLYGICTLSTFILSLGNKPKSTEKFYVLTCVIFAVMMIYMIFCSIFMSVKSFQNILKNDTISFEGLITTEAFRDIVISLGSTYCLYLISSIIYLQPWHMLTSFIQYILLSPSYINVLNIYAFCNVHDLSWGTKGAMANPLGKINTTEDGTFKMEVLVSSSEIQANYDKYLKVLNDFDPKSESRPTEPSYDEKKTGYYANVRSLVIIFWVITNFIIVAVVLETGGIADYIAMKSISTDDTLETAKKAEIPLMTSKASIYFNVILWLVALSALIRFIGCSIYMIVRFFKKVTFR", "test": "Inhibitory activity against Chs 1 (chitin formation from [14C]-UDP-N-acetylglucosamine in permeabilized overproducer cells)", "format": "biochemical", "procedure": "(§1) Inhibitory activity of Xanthofulvin against Chs 1 and Chs 2 from Saccharomyces cerevisiae was measured respectively.\n(§2) The overproducer employed for Chs 1 was Saccharomyces cerevisiae (ura3) harbouring plasmid (CHSl, URA3). The cells were permeabilized with 0.5% digitonin for 15 min at 30° C., followed by treatment with trypsin at the final concentration of 100 μg/ml for 15 min at 30° C. After addition of trypsin inhibitor from soybean, 50 μl of 2.5×10^7 cells/ml was incubated for 1 hr at 30° C. with 40 μl of assay solution containing 50 mM MES pH 6.5, 5 mM Mg(OAc)2, 32 mM N-acetylglucosamine and 0.1 mM [^14 C]-UDP-N-acetylglucosamine, and 10 μl of sample solution. Reaction was terminated with addition of TCA and cells are collected on the filter and washed with 70% aqueous ethanol containing 0.3M acetic acid. Radioactivity of cells is counted with a liquid scientillation counter. Amount of chitin formed was determined on the basis of radioactivity incorporated into the cells (S. J. Silverman, A. Sburlati, M. J. Slater and E. Cabib. Proc. Natl. Acad. Sci. USA, 85, 4735-4739 (1988))."}, "[1]": {"test": "Solubility (physico-chemical properties)", "format": "physicochemical", "text": "The physico-chemical properties of Xanthofulvin obtained as described in the Example given hereinbelow are as follows: […]"}, "Acute toxicity": {"test": "Acute toxicity", "settings": "in vivo"}, "Chs 2": {"target": "T2, Chs 2 (Saccharomyces cerevisiae, UniProt P14180)", "T2 construct": "digitonin-permeabilized, trypsin-treated cells", "T2 sequence (P14180 whole entry)": "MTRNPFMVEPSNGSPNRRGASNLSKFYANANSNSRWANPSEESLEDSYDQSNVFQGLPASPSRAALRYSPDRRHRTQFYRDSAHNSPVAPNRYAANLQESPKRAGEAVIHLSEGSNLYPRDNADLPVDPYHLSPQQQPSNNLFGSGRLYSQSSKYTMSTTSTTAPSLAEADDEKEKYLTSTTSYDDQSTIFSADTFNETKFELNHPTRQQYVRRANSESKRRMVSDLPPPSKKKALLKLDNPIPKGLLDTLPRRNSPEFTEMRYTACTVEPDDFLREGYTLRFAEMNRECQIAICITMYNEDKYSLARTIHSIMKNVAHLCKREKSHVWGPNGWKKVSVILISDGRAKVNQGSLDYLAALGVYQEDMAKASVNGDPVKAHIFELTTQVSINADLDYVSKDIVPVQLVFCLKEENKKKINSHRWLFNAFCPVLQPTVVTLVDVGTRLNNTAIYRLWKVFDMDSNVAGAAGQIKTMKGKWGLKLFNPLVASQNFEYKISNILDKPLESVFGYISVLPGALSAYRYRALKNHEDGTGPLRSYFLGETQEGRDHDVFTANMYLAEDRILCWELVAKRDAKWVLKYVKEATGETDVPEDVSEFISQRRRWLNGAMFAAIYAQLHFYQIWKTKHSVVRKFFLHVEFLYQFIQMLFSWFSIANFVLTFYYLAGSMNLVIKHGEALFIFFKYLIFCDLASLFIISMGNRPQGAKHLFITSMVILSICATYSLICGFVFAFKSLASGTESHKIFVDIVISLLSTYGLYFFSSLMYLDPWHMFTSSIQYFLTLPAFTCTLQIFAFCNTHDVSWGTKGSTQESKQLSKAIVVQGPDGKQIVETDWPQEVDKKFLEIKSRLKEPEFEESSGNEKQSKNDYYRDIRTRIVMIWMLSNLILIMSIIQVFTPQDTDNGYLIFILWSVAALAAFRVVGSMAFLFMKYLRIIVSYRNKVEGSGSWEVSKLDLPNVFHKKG", "test": "Inhibitory activity against Chs 2 (chitin formation from [14C]-UDP-N-acetylglucosamine in permeabilized overproducer cells)", "format": "biochemical", "procedure": "as §1, §2\nOverproducer for Chs 2 was a Saccharomyces cerevisiae strain of disrupted Chs 1 gene (chs1:: URA3, leu2 ) with plasmid (CHS2, LEU2). Assay method was the same as the one for Chs 1 described above except for assay solution. Assay solution for Chs 2 contained 30 mM Tris (pH 7.5), 2.5 mM Co(OAc)2, 32 mM N-acetylglucosamine and 0.1 mM [^14 C]-UDP-N-acetylglucosamine (See: Silverman et al. supra)."}, "[2]": {"target": "chitin synthase 1 (Chs 1) (Saccharomyces cerevisiae, UniProt P08004)", "settings": "literature, E. Cabib 1991; cited from earlier work"}},
  "note": "Read-outs that look alike come from different tables or passages of the source.",
  "data": [
    {"smiles": "CC(=O)c1c(C)c(/C(O)=C2\\COc3cc(O)c(O)c(C(=O)O)c3C2=O)cc2c(=O)c3c(C(=O)O)c(O)c(O)cc3oc12", "note": "[Xanthofulvin]", "values": [
      {"measurement": "IC50", "setting": "Chs 1; Chs 1 overproducer, MES pH 6.5, Mg(OAc)2, 1 hr at 30° C., read-out: IC50 Chs 1", "result": "> 200000", "unit": "nM"},
      {"measurement": "Solubility", "setting": "[1]; in DMSO", "result": "Soluble"},
      {"measurement": "Solubility", "setting": "[1]; in H2O", "result": "Slightly soluble"},
      {"measurement": "Solubility", "setting": "[1]; in MeOH", "result": "Soluble"},
      {"measurement": "Solubility", "setting": "[1]; in n-hexane", "result": "Insoluble"},
      {"measurement": "Acute toxicity", "setting": "Acute toxicity", "result": "not observed"},
      {"measurement": "IC50", "setting": "Chs 2; Chs 2 overproducer, Tris pH 7.5, Co(OAc)2, read-out: IC50 Chs 2", "result": 2200, "unit": "nM"},
      {"measurement": "Chs 2 inhibiting activity (in words)", "setting": "Chs 2; summary of Table 1", "result": "high Chs 2 inhibiting activity"}
    ]},
    {"smiles": "C[C@@H]([C@H](N)C(=O)N[C@H](C(=O)O)[C@H]1OC(n2cc(C=O)nc2O)[C@H](O)[C@@H]1O)[C@H](O)c1ccc(O)cn1", "note": "(stereo partly drawn) [nikkomycin X]", "values": [
      {"measurement": "Inhibition of chitin synthase 1 versus Chs 2 (in words)", "setting": "[2]", "result": "inhibit chitin synthase 1 (Chs 1) rather than Chs 2"}
    ]},
    {"smiles": "NC(=O)OC[C@H](O)[C@@H](O)[C@H](N)C(=O)N[C@H](C(=O)O)[C@H]1O[C@@H](n2cc(C(=O)O)c(=O)[nH]c2=O)[C@H](O)[C@@H]1O", "note": "[polyoxin D, reference compound]", "values": [
      {"measurement": "IC50", "setting": "Chs 1", "result": 260, "unit": "nM"},
      {"measurement": "Inhibition of chitin synthase 1 versus Chs 2 (in words)", "setting": "[2]", "result": "inhibit chitin synthase 1 (Chs 1) rather than Chs 2"},
      {"measurement": "IC50", "setting": "Chs 2", "result": 10300, "unit": "nM"}
    ]}
  ]
}
